Literature values in publication PMC2217462 (The Journal of General Physiology, 2004).

Assays:
[1] = test system: Kv2.1 channel, mutations at F274; conditions: mutations at F274 of Kv2.1; ref Li-Smerin and Swartz, 2000
[2] = test system: Kv2.1 channel, basic substitutions at E277; conditions: substitution of basic residues at E277 of Kv2.1; ref Li-Smerin and Swartz, 2000

Substance: hanatoxin
- fold increase in hanatoxin Kd [1]: ≤ 500 fold
- fold increase in hanatoxin Kd [2]: ≤ 125 fold
